test system: HBsAg; assay: HBsAg assay (chemiluminescence immunoassay of secreted HBsAg); type: cell-based, HBV; settings: Hepatitis B virus, HepG2.2.15, HBsAg secretion, HepG2.2.15 cells, CLIA of culture supernatant
Description: HepG2.2.15 cells (Acs et al. Proc Natl Acad Sci USA, 84, (1987), 4641-4), a constitutively HBV-expressing cell line were cultured in DMEM+Glutamax-I medium (Invitrogen, Carlsbad, Calif., USA), supplemented with 10% fetal bovine serum (Invitrogen) and G418 (Invitrogen) at a final concentration of 200 mg/L and maintained in 5% CO2 at 37° C.
HepG2.2.15 cells were seeded in duplicate into white, 96-well plates at 1.5×10^4 cells/well. The cells were treated with a three-fold serial dilution series of the compounds in DMSO. The final DMSO concentration in all wells was 1% and DMSO was used as no drug control.
The HBsAg chemiluminescence immunoassay (CLIA) kit (Autobio Diagnostics Co., Zhengzhou, China, Catalog number: CL0310-2) was used to measure the levels of secreted HBV antigens semi-quantitatively. For the detection 50 μL/well culture supernatant was used and HBsAg was quantified using HBsAg chemiluminescence immunoassay (CLIA) kit (Autobio Diagnostics Co., Zhengzhou, China, Catalog number: CL0310-2), 50 μL of the supernatant was transferred to the CLIA assay plate and 50 μL of enzyme conjugate reagent was added into each well. The plates were sealed and gently agitated for 1 hour at room temperature. The supernatant-enzyme-mixture was discarded and wells were washed 6 times with 300 μL of PBS.
The residual liquid was removed by plating the CLIA plate right side down on absorbent tissue paper. 25 μL of substrates A and B were added to each well. Luminance was measured using a luminometer (Mithras LB 940 Multimode Microplate Reader) after 10 minutes incubation. Dose-response curves were generated and the IC50 value was extrapolated by using the E-WorkBook Suite (ID Business Solutions Ltd., Guildford, UK). The IC50 was defined as the compound concentration (or conditioned media log dilution) at which HBsAg secretion was reduced by 50% compared to the no drug control.
The compounds according to formula I were tested for their capacity to inhibit HBsAg as described herein.

Point of comparison: `COC1CCN(c2cc(F)nc(N3CCc4nc(-c5ccccn5)ncc4C3C)c2)C1` (stereo not shown) [Example 83, 6-[6-fluoro-4-(3-methoxypyrrolidin-1-yl)-2-pyridyl]-5-methyl-2-(2-pyridyl)-7,8-dihydro-5H-pyrido[4,3-d]pyrimidine], IC50 20 nM. Against it:
- COCC1CCCN1c1cc(F)cc(N2CCc3nc(-c4ncccn4)ncc3C2C)n1 (stereo not shown) [Example 35, 6-[4-fluoro-6-[2-(methoxymethyl)pyrrolidin-1-yl]-2-pyridyl]-5-methyl-2-pyrimidin-2-yl-7,8-dihydro-5H-pyrido[4,3-d]pyrimidine] — 1.6-fold higher, 33 nM
- CC1CN(c2cc(F)cc(N3CCc4nc(-c5ncccn5)ncc4C3C)n2)CCO1 (stereo not shown) [Example 5, 4-[4-fluoro-6-(5-methyl-2-pyrimidin-2-yl-7,8-dihydro-5H-pyrido[4,3-d]pyrimidin-6-yl)-2-pyridyl]-2-methyl-morpholine] — the same, 20 nM
- CC1c2cnc(-c3ncccn3)nc2CCN1c1cc(N(C)CCCCC(N)=O)cc(F)n1 (stereo not shown) [Example 141, 5-[[2-fluoro-6-(5-methyl-2-pyrimidin-2-yl-7,8-dihydro-5H-pyrido[4,3-d]pyrimidin-6-yl)-4-pyridyl]-methyl-amino]pentanamide] — 2.1-fold higher, 43 nM
- CC1CN(c2cc(F)cc(N3CCc4nc(-c5ncccn5)ncc4C3C)n2)CC(=O)N1 (stereo not shown) [Example 133, 4-[4-fluoro-6-(5-methyl-2-pyrimidin-2-yl-7,8-dihydro-5H-pyrido[4,3-d]pyrimidin-6-yl)-2-pyridyl]-6-methyl-piperazin-2-one] — 2.2-fold lower, 9 nM
- CC1c2cnc(-c3ncccn3)nc2CCN1c1cc(N(CCCCC(N)=O)CC2CC2)cc(F)n1 (stereo not shown) [Example 143, 5-[Cyclopropylmethyl-[2-fluoro-6-(5-methyl-2-pyrimidin-2-yl-7,8-dihydro-5H-pyrido[4,3-d]pyrimidin-6-yl)-4-pyridyl]amino]pentanamide] — 8.8-fold higher, 176 nM
- CC1c2cnc(-c3ccccn3)nc2CCN1c1cc(N2CCN(S(C)(=O)=O)CC2)cc(F)n1 (stereo not shown) [Example 71, 6-[6-fluoro-4-(4-methylsulfonylpiperazin-1-yl)-2-pyridyl]-5-methyl-2-(2-pyridyl)-7,8-dihydro-5H-pyrido[4,3-d]pyrimidine] — 2.5-fold lower, 8 nM
- CC1c2cnc(-c3ncccn3)nc2CCN1c1cc(N2CCCC2=O)cc(F)n1 (stereo not shown) [Example 113, 1-[2-Fluoro-6-(5-methyl-2-pyrimidin-2-yl-7,8-dihydro-5H-pyrido[4,3-d]pyrimidin-6-yl)-4-pyridyl]pyrrolidin-2-one] — 5-fold lower, 4 nM
- CC1c2cnc(-c3ncccn3)nc2CCN1c1cc(N2CCCC2C(=O)O)cc(F)n1 (stereo not shown) [Example 32, 1-[2-fluoro-6-(5-methyl-2-pyrimidin-2-yl-7,8-dihydro-5H-pyrido[4,3-d]pyrimidin-6-yl)-4-pyridyl]pyrrolidine-2-carboxylic acid] — 20-fold higher, 391 nM
- CC1c2cnc(-c3ncccn3)nc2CCN1c1cc(F)cc(N2CCN(S(C)(=O)=O)C(C)(C)C2)n1 (stereo not shown) [Example 99, 6-[6-(3,3-dimethyl-4-methylsulfonyl-piperazin-1-yl)-4-fluoro-2-pyridyl]-5-methyl-2-pyrimidin-2-yl-7,8-dihydro-5H-pyrido[4,3-d]pyrimidine] — within 1.5-fold, 26 nM
- CC1c2cnc(-c3ncccn3)nc2CCN1c1cc(N2CCC(C(=O)NS(C)(=O)=O)CC2)cc(F)n1 (stereo not shown) [Example 66, 1-[2-fluoro-6-(5-methyl-2-pyrimidin-2-yl-7,8-dihydro-5H-pyrido[4,3-d]pyrimidin-6-yl)-4-pyridyl]-N-methylsulfonyl-piperidine-4-carboxamide] — 97-fold higher, 1940 nM
- CC1c2cnc(-c3ncccn3)nc2CCN1c1cc(F)cc(N2CC(C(=O)O)C2)n1 (stereo not shown) [Example 53, 1-[4-fluoro-6-(5-methyl-2-pyrimidin-2-yl-7,8-dihydro-5H-pyrido[4,3-d]pyrimidin-6-yl)-2-pyridyl]azetidine-3-carboxylic acid] — 240-fold higher, 4710 nM
- CC1c2cnc(-c3ncccn3)nc2CCN1c1cc(N2CCC(C(N)=O)C2)cc(F)n1 (stereo not shown) [Example 44, 1-[2-fluoro-6-(5-methyl-2-pyrimidin-2-yl-7,8-dihydro-5H-pyrido[4,3-d]pyrimidin-6-yl)-4-pyridyl]pyrrolidine-3-carboxamide] — 2.7-fold higher, 54 nM
- CC1c2cnc(-c3ncccn3)nc2CCN1c1cc(N2CCC3(CCOC3)C2)cc(F)n1 (stereo not shown) [Example 12, 7-[2-fluoro-6-(5-methyl-2-pyrimidin-2-yl-7,8-dihydro-5H-pyrido[4,3-d]pyrimidin-6-yl)-4-pyridyl]-2-oxa-7-azaspiro[4.4]nonane] — 2.5-fold lower, 8 nM
- CC1c2cnc(-c3ncccn3)nc2CCN1c1cc(F)cc(NCCCCCC(=O)O)n1 (stereo not shown) [Example 2, 6-[[4-fluoro-6-(5-methyl-2-pyrimidin-2-yl-7,8-dihydro-5H-pyrido[4,3-d]pyrimidin-6-yl)-2-pyridyl]amino]hexanoic acid] — 7.8-fold higher, 155 nM
- COC1CCN(c2cc(N3CCc4nc(-c5ncccn5)ncc4C3C)cc(F)n2)C1 (stereo not shown) [Example 108, 6-[2-Fluoro-6-(3-methoxypyrrolidin-1-yl)-4-pyridyl]-5-methyl-2-pyrimidin-2-yl-7,8-dihydro-5H-pyrido[4,3-d]pyrimidine] — 1.5-fold lower, 13 nM
- CC1c2cnc(-c3ncccn3)nc2CCN1c1cc(N2CCN(CC(N)=O)CC2)cc(F)n1 (stereo not shown) [Example 102, 2-[4-[2-fluoro-6-(5-methyl-2-pyrimidin-2-yl-7,8-dihydro-5H-pyrido[4,3-d]pyrimidin-6-yl)-4-pyridyl]piperazin-1-yl]acetamide] — within 1.5-fold, 29 nM
- CC1c2cnc(-c3ncccn3)nc2CCN1c1cc(N2CCNC(C(=O)O)C2)cc(F)n1 (stereo not shown) [Example 50, 4-[2-Fluoro-6-(5-methyl-2-pyrimidin-2-yl-7,8-dihydro-5H-pyrido[4,3-d]pyrimidin-6-yl)-4-pyridyl]piperazine-2-carboxylic acid] — 97-fold higher, 1940 nM
- CC1c2cnc(-c3ncccn3)nc2CCN1c1cc(NCCCCC(N)=O)cc(F)n1 (stereo not shown) [Example 137, 5-[[2-Fluoro-6-(5-methyl-2-pyrimidin-2-yl-7,8-dihydro-5H-pyrido[4,3-d]pyrimidin-6-yl)-4-pyridyl]amino]pentanamide] — 6-fold higher, 120 nM
- CC1c2cnc(-c3ncccn3)nc2CCN1c1cc(F)cc(N2CC(C(=O)NS(C)(=O)=O)C2)n1 (stereo not shown) [Example 63, 1-[4-fluoro-6-(5-methyl-2-pyrimidin-2-yl-7,8-dihydro-5H-pyrido[4,3-d]pyrimidin-6-yl)-2-pyridyl]-N-methylsulfonyl-azetidine-3-carboxamide] — 270-fold higher, 5420 nM
- CC1c2cnc(-c3ncccn3)nc2CCN1c1cc(F)cc(N2CCCC2C(=O)O)n1 (stereo not shown) [Example 33, 1-[4-fluoro-6-(5-methyl-2-pyrimidin-2-yl-7,8-dihydro-5H-pyrido[4,3-d]pyrimidin-6-yl)-2-pyridyl]pyrrolidine-2-carboxylic acid] — 4.7-fold higher, 93 nM
- CC1c2cnc(-c3ccccn3)nc2CCN1c1cc(N2CCC(O)C2)cc(F)n1 (stereo not shown) [Example 60, 1-[2-fluoro-6-[5-methyl-2-(2-pyridyl)-7,8-dihydro-5H-pyrido[4,3-d]pyrimidin-6-yl]-4-pyridyl]pyrrolidin-3-ol] — within 1.5-fold, 23 nM
- CC1c2cnc(-c3ccccn3)nc2CCN1c1cc(F)cc(N2CCC(O)C2)n1 (stereo not shown) [Example 59, 1-[4-fluoro-6-[5-methyl-2-(2-pyridyl)-7,8-dihydro-5H-pyrido[4,3-d]pyrimidin-6-yl]-2-pyridyl]pyrrolidin-3-ol] — within 1.5-fold, 26 nM
- CC1c2cnc(-c3ncccn3)nc2CCN1c1cc(N2CCCCS2(=O)=O)cc(F)n1 (stereo not shown) [Example 162, 2-[2-Fluoro-6-(5-methyl-2-pyrimidin-2-yl-7,8-dihydro-5H-pyrido[4,3-d]pyrimidin-6-yl)-4-pyridyl]thiazinane1,1-dioxide] — within 1.5-fold, 15 nM
- CC1c2cnc(-c3ncccn3)nc2CCN1c1cc(N2CC(C#N)C2)cc(F)n1 (stereo not shown) [Example 144, 1-[2-Fluoro-6-(5-methyl-2-pyrimidin-2-yl-7,8-dihydro-5H-pyrido[4,3-d]pyrimidin-6-yl)-4-pyridyl]azetidine-3-carbonitrile] — within 1.5-fold, 28 nM
- CC1c2cnc(-c3ncccn3)nc2CCN1c1cc(F)cc(N2CCOC(C)(C)C2)n1 (stereo not shown) [Example 9, 4-[4-fluoro-6-(5-methyl-2-pyrimidin-2-yl-7,8-dihydro-5H-pyrido[4,3-d]pyrimidin-6-yl)-2-pyridyl]-2,2-dimethyl-morpholine] — within 1.5-fold, 29 nM
- CC1c2cnc(-c3ncccn3)nc2CCN1c1cc(F)cc(N2CCC(C(N)=O)CC2)n1 (stereo not shown) [Example 55, 1-[4-fluoro-6-(5-methyl-2-pyrimidin-2-yl-7,8-dihydro-5H-pyrido[4,3-d]pyrimidin-6-yl)-2-pyridyl]piperidine-4-carboxamide] — 3.6-fold higher, 72 nM
- CC1c2cnc(-c3ncccn3)nc2CCN1c1cc(F)cc(N2CCOC(CC(=O)O)C2)n1 (stereo not shown) [Example 29, 2-[4-[4-fluoro-6-(5-methyl-2-pyrimidin-2-yl-7,8-dihydro-5H-pyrido[4,3-d]pyrimidin-6-yl)-2-pyridyl]morpholin-2-yl]acetic acid] — 36-fold higher, 722 nM

— patent publication US11104674B2 (Hoffmann-La Roche Inc., priority 2016, dated 2021)
